Test results published in US12637478B2, “Compound, preparation method thereof, and antibiotic composition comprising same” (priority 2020, dated 2026).
≈ marks a conversion by molar mass, not a printed value. Where two headings read alike, the source gives them in different places.

How the values were obtained:
[1] = tested on: S. aureus^MS; test: MIC by broth microdilution (aerobic pathogens), test strain 1; assay type: cell-based; conditions: Staphylococcus aureus
Method: (§1) The antibacterial activity of the compounds of Examples 1 to 48 of the present invention against aerobic pathogens were evaluated by measuring the minimum concentration of the antibiotic capable of inhibiting bacterial growth by 90% compared to the growth of the non-drug treated control group. MIC was measured by the broth microdilution method based on CLSI standards [Reference: Clinical and Laboratory Standards Institute Document. (2000) Methods for Dilution Antimicrobial Susceptibility Test for Bacteria that Grow Aerobically-Fifth Edition: M7-A5. CLSI, Villanova, PA].
(§2) All 13 strains such as methicillin susceptible Staphylococcus aureus (MSSA), methicillin resistant Staphylococcus aureus (MRSA), Vancomycin resistant Staphylococcus aureus (VRSA), Staphylococcus epidermidis, methicillin resistant Staphylococcus epidermidis, Enterococcus faecalis, Vancomycin resistant Enterococcus faecalis, Enterococcus faecium, Vancomycin resistant Enterococcus faecium were used.

[2] = tested on: S. aureus^MS; test: MIC by broth microdilution (aerobic pathogens), test strain 2; assay type: cell-based; conditions: Staphylococcus aureus
Method: as §1, §2

[3] = tested on: S. epidermis; test: MIC by broth microdilution (aerobic pathogens), test strain 5; assay type: cell-based; conditions: Staphylococcus epidermidis
Method: as §1, §2

[4] = tested on: S. epidermis^MR; test: MIC by broth microdilution (aerobic pathogens), test strain 6; assay type: cell-based, Methicillin resistant Staphylococcus epidermidis; conditions: Staphylococcus epidermidis; test strain 6, S. epidermis^MR (methicillin resistant); read-out: MIC
Method: as §1, §2

[5] = tested on: E. faecalis^LinR; test: MIC by broth microdilution (aerobic pathogens), test strain 9; assay type: cell-based, Linezolid resistant Enterococcus faecalis; conditions: Enterococcus faecalis
Method: as §1, §2

[6] = tested on: C. difficile 174; test: MIC by agar dilution against Clostridioides difficile, test strain 18; assay type: cell-based; conditions: test strain 18, C. difficile 174, anaerobic, agar dilution, read-out: MIC
[7] = tested on: C. difficile 173; test: MIC by agar dilution against Clostridioides difficile, test strain 17; assay type: cell-based; conditions: test strain 17, C. difficile 173, anaerobic, agar dilution, read-out: MIC
[8] = tested on: C. difficile 181; test: MIC by agar dilution against Clostridioides difficile, test strain 19; assay type: cell-based; conditions: test strain 19, C. difficile 181, anaerobic, agar dilution, read-out: MIC
[9] = tested on: C. difficile 9689; test: MIC by agar dilution against Clostridioides difficile, test strain 13; assay type: cell-based; conditions: test strain 13, C. difficile 9689, anaerobic, agar dilution, read-out: MIC
[10] = tested on: C. difficile 161; test: MIC by agar dilution against Clostridioides difficile, test strain 16; assay type: cell-based; conditions: test strain 16, C. difficile 161, anaerobic, agar dilution, read-out: MIC
[11] = tested on: C. difficile 159; test: MIC by agar dilution against Clostridioides difficile, test strain 15; assay type: cell-based
[12] = tested on: C. difficile 152; test: MIC by agar dilution against Clostridioides difficile, test strain 14; assay type: cell-based; conditions: test strain 14, C. difficile 152, anaerobic, agar dilution, read-out: MIC
[13] = tested on: E. faecalis; test: MIC by broth microdilution (aerobic pathogens), test strain 7; assay type: cell-based; conditions: Enterococcus faecalis; test strain 7, E. faecalis; read-out: MIC
Method: as §1, §2

[14] = tested on: E. faecium^LinR; test: MIC by broth microdilution (aerobic pathogens), test strain 12; assay type: cell-based, Linezolid resistant Enterococcus faecium; conditions: Enterococcus faecium; test strain 12, E. faecium^LinR (linezolid resistant); read-out: MIC
Method: as §1, §2

[15] = tested on: E. faecalis^VanA; test: MIC by broth microdilution (aerobic pathogens), test strain 8; assay type: cell-based, Vancomycin resistant Enterococcus faecalis; conditions: Enterococcus faecalis; test strain 8, E. faecalis^VanA (vancomycin resistant); read-out: MIC
Method: as §1, §2

[16] = test strain 5, S. epidermis, read-out: MIC
[17] = test strain 1, S. aureus^MS, read-out: MIC
[18] = test strain 9, E. faecalis^LinR (linezolid resistant), read-out: MIC
[19] = test strain 2, S. aureus^MS, read-out: MIC

Molecule C/C=C1\NC(=O)[C@H]([C@@H](C)O)NC(=O)c2csc(n2)-c2ccc(-c3nc(-c4nc(C(=O)NC5(C(=O)NCCN)CC5)cs4)cs3)nc2-c2csc(n2)[C@H]([C@@H](C)O)NC(=O)c2csc(n2)[C@H](C(C)C)NC(=O)c2csc1n2 [Compound 25] has an MIC [1] of 1 µg/mL (≈ 0.885 µM) and an MIC [2] of 1 µg/mL (≈ 0.885 µM).

Molecule C/C=C1\NC(=O)[C@H]([C@@H](C)O)NC(=O)c2csc(n2)-c2ccc(-c3nc(-c4nc(C(=O)NC5(C(=O)NCCN6CCN(C7CC7)CC6)CC5)cs4)cs3)nc2-c2csc(n2)[C@H]([C@@H](C)O)NC(=O)c2csc(n2)[C@H](C(C)C)NC(=O)c2csc1n2 [Compound 33] has an MIC [3, 16] of 1 µg/mL (≈ 0.807 µM), an MIC [1, 17] of 1 µg/mL (≈ 0.807 µM) and an MIC [4] of 0.5 µg/mL (≈ 0.404 µM). For the same molecule, the MIC [5, 18] was 0.5 µg/mL (≈ 0.404 µM).

C/C=C1\NC(=O)[C@H]([C@@H](C)O)NC(=O)c2csc(n2)-c2ccc(-c3nc(-c4nc(C(=O)NC5(C(=O)NCCCNC6COC6)CC5)cs4)cs3)nc2-c2csc(n2)[C@H]([C@@H](C)O)NC(=O)c2csc(n2)[C@H](C(C)C)NC(=O)c2csc1n2 [Compound 17] was tested, and the MIC [1, 17] was 1 µg/mL (≈ 0.834 µM) and the MIC [2, 19] was 1 µg/mL (≈ 0.834 µM).

C/C=C(\NC(=O)c1csc(-c2csc(-c3ccc4c(n3)-c3csc(n3)[C@H]([C@@H](C)O)NC(=O)c3csc(n3)[C@H](C(C)C)NC(=O)c3csc(n3)/C(=C/C)NC(=O)[C@H]([C@@H](C)O)NC(=O)c3csc-4n3)n2)n1)C(=O)NCCn1ccnc1[N+](=O)[O-] [Compound 43] showed an MIC [6] of 0.5 µg/mL (≈ 0.408 µM), an MIC [7] of 1 µg/mL (≈ 0.816 µM) and an MIC [8] of 0.5 µg/mL (≈ 0.408 µM). It also gave an MIC [9] of 0.5 µg/mL (≈ 0.408 µM), an MIC [10] of 0.5 µg/mL (≈ 0.408 µM) and an MIC ([11]; test strain 15, C. difficile 159, anaerobic, agar dilution, read-out: MIC) of 0.5 µg/mL (≈ 0.408 µM). For the same molecule, the MIC [12] was 0.5 µg/mL (≈ 0.408 µM).

With C/C=C1\NC(=O)[C@H]([C@@H](C)O)NC(=O)c2csc(n2)-c2ccc(-c3nc(-c4nc(C(=O)NC5(C(=O)NCCCN6C(=O)CN(CCC(=O)OC)C6=O)CC5)cs4)cs3)nc2-c2csc(n2)[C@H]([C@@H](C)O)NC(=O)c2csc(n2)[C@H](C(C)C)NC(=O)c2csc1n2 [Compound 16] the MIC [1] was 1 µg/mL (≈ 0.762 µM), the MIC [5] was 0.25 µg/mL (≈ 0.19 µM) and the MIC [2] was 0.5 µg/mL (≈ 0.381 µM). It also gave an MIC [11]; 159 of 0.5 µg/mL (≈ 0.381 µM).

C/C=C1\NC(=O)[C@H]([C@@H](C)O)NC(=O)c2csc(n2)-c2ccc(-c3nc(-c4nc(C(=O)NC5(C(=O)NCCN6C(=O)CSC6=O)CC5)cs4)cs3)nc2-c2csc(n2)[C@H]([C@@H](C)O)NC(=O)c2csc(n2)[C@H](C(C)C)NC(=O)c2csc1n2 [Compound 36] was tested, and the MIC [3, 16] was 0.5 µg/mL (≈ 0.407 µM), the MIC [1, 17] was 0.25 µg/mL (≈ 0.203 µM) and the MIC [4] was 0.5 µg/mL (≈ 0.407 µM). The MIC [13] was 0.5 µg/mL (≈ 0.407 µM), the MIC [2, 19] was 0.5 µg/mL (≈ 0.407 µM) and the MIC [14] was 1 µg/mL (≈ 0.813 µM).

Work on C/C=C1\NC(=O)[C@H]([C@@H](C)O)NC(=O)c2csc(n2)-c2ccc(-c3nc(-c4nc(C(=O)NC5(C(=O)NCCCn6cc([N+](=O)[O-])cn6)CC5)cs4)cs3)nc2-c2csc(n2)[C@H]([C@@H](C)O)NC(=O)c2csc(n2)[C@H](C(C)C)NC(=O)c2csc1n2 [Compound 13] yielded an MIC [6] of 0.125 µg/mL (≈ 0.101 µM), an MIC [7] of 0.5 µg/mL (≈ 0.403 µM) and an MIC [8] of 0.5 µg/mL (≈ 0.403 µM). For the same molecule, the MIC [9] was 0.5 µg/mL (≈ 0.403 µM), the MIC [10] was 0.5 µg/mL (≈ 0.403 µM) and the MIC [12] was 1 µg/mL (≈ 0.807 µM).

Work on C/C=C1\NC(=O)[C@H]([C@@H](C)O)NC(=O)c2csc(n2)-c2ccc(-c3nc(-c4nc(C(=O)NC5(C(=O)NCCN6CCN(CCCC#N)CC6)CC5)cs4)cs3)nc2-c2csc(n2)[C@H]([C@@H](C)O)NC(=O)c2csc(n2)[C@H](C(C)C)NC(=O)c2csc1n2 [Compound 31] yielded an MIC [3, 16] of 0.25 µg/mL (≈ 0.198 µM), an MIC [1, 17] of 0.5 µg/mL (≈ 0.395 µM) and an MIC [4] of 0.5 µg/mL (≈ 0.395 µM). The MIC [15] was 1 µg/mL (≈ 0.79 µM), the MIC [13] was 1 µg/mL (≈ 0.79 µM) and the MIC [2, 19] was 1 µg/mL (≈ 0.79 µM).

C/C=C1\NC(=O)[C@H]([C@@H](C)O)NC(=O)c2csc(n2)-c2ccc(-c3nc(-c4nc(C(=O)NC5(C(=O)NCCN6CCOCC6)CC5)cs4)cs3)nc2-c2csc(n2)[C@H]([C@@H](C)O)NC(=O)c2csc(n2)[C@H](C(C)C)NC(=O)c2csc1n2 [Compound 2] showed an MIC [3] of 0.25 µg/mL (≈ 0.208 µM), an MIC [1, 17] of 1 µg/mL (≈ 0.834 µM) and an MIC [4] of 0.5 µg/mL (≈ 0.417 µM). It also gave an MIC [5, 18] of 1 µg/mL (≈ 0.834 µM), an MIC [15] of 0.5 µg/mL (≈ 0.417 µM) and an MIC [13] of 0.5 µg/mL (≈ 0.417 µM). The MIC [2, 19] was 1 µg/mL (≈ 0.834 µM).
